# Reference: PubChem BioAssay AID1259411 (Chemical Carcinogenesis Research Information System (CCRIS), 2018)
# Active and inactive are the calls of the source. No rule for the calls is given here.
# Test system: rodent carcinogenicity bioassays, tumor incidence
# Test: CCRIS carcinogenicity studies
# How it was run: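 Archive of carcinogenicity, mutagenicity, tumor promotion and tumor inhibition results drawn from journals, NCI reports and other sources, expert-reviewed; covers 1985-2011 and is no longer updated.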
smiles,measurement,setting,value
Oc1c(Cl)c(Cl)c(Cl)c(Cl)c1Cl,carcinogen call,"Species: MOUSE, Strain/Sex: B6C3F1/FEMALE, Route: ORAL, Dose: 0, 100, 200, 600 PPM DOWCIDE EC-7 IN FEED FOR 103 WK (STUDY DURATION: 103 WK), Dose: 0, 100, 200, 600 PPM DOWCIDE EC-7 IN FEED FOR 103 WK (STUDY DURATION: 103 WK), Tumor Site: Type of Lesion: ADRENAL GLAND/MEDULLA: PHEOCHROMOCYTOMA: ADRENAL GLAND/MEDULLA: PHEOCHROMOCYTOMA OR MALIGNANT PHEOCHROMOCYTOMA, CIRCULAT",active; positive
same,carcinogen call,"Species: MOUSE, Strain/Sex: B6C3F1/FEMALE, Route: ORAL, Dose: 0, 100, 200 PPM TECHNICAL GRADE PENTACHLOROPHENOL IN FEED FOR 103 WK (STUDY DURATION: 103 WK), Dose: 0, 100, 200 PPM TECHNICAL GRADE PENTACHLOROPHENOL IN FEED FOR 103 WK (STUDY DURATION: 103 WK), Tumor Site: Type of Lesion: LIVER: HEPATOCELLULAR ADENOMA OR CARCINOMA, CIRCULATORY SYSTEM: HEMANGIOSARCOMA",active; positive
same,carcinogen call,"Species: MOUSE, Strain/Sex: B6C3F1/MALE, Route: ORAL, Dose: 0, 100, 200, 600 PPM DOWCIDE EC-7 IN FEED FOR 103 WK (STUDY DURATION: 103 WK), Dose: 0, 100, 200, 600 PPM DOWCIDE EC-7 IN FEED FOR 103 WK (STUDY DURATION: 103 WK), Tumor Site: Type of Lesion: ADRENAL GLAND/MEDULLA: PHEOCHROMOCYTOMA, ADRENAL GLAND/MEDULLA: PHEOCHROMOCYTOMA OR MALIGNANT PHEOCHROMOCYTOMA, LIVER: H, Tumor Site: Type of Lesion: ADRENAL GLAND/MEDULLA: PHEOCHROMOCYTOMA, ADRENAL GLAND/MEDULLA: PHEOCHROMOCYTOMA OR MALIGNANT PHEOCHROMOCYTOMA, LIVER: H",active; positive
same,carcinogen call,"Species: MOUSE, Strain/Sex: B6C3F1/MALE, Route: ORAL, Dose: 0, 100, 200 PPM TECHNICAL GRADE PENTACHLOROPHENOL IN FEED FOR 103 WK (STUDY DURATION: 103 WK), Dose: 0, 100, 200 PPM TECHNICAL GRADE PENTACHLOROPHENOL IN FEED FOR 103 WK (STUDY DURATION: 103 WK), Tumor Site: Type of Lesion: ADRENAL GLAND/MEDULLA: PHEOCHROMOCYTOMA, LIVER: HEPATOCELLULAR ADENOMA, LIVER: HEPATOCELLULAR ADENOMA OR CARCINOMA, Tumor Site: Type of Lesion: ADRENAL GLAND/MEDULLA: PHEOCHROMOCYTOMA, LIVER: HEPATOCELLULAR ADENOMA, LIVER: HEPATOCELLULAR ADENOMA OR CARCINOMA",active; positive
same,carcinogen call,"Species: MOUSE, Strain/Sex: B6C3F1/MALE, Route: ORAL, Dose: 0, 1200 PPM IN DIET FOR 13 WK (STUDY DURATION: 42 WK)",inactive; negative
same,carcinogen call,"Species: RAT, Strain/Sex: F344/N/FEMALE, Route: ORAL, Dose: 0, 200, 400, 600 PPM IN DIET FOR 105 WK (STUDY DURATION: 105 WK), Dose: 0, 200, 400, 600 PPM IN DIET FOR 105 WK (STUDY DURATION: 105 WK)",inactive; negative
same,carcinogen call,"Species: RAT, Strain/Sex: F344/N/FEMALE, Route: ORAL, Dose: 0, 1000 PPM IN DIET FOR 52 WK (STUDY DURATION: 105 WK)",inactive; negative
same,carcinogen call,"Species: RAT, Strain/Sex: F344/N/MALE, Route: ORAL, Dose: 0, 200, 400, 600 PPM IN DIET FOR 105 WK (STUDY DURATION: 105 WK), Dose: 0, 200, 400, 600 PPM IN DIET FOR 105 WK (STUDY DURATION: 105 WK)",inactive; negative
same,carcinogen call,"Species: RAT, Strain/Sex: F344/N/MALE, Route: ORAL, Dose: 0, 1000 PPM IN DIET FOR 52 WK (STUDY DURATION: 105 WK), Tumor Site: Type of Lesion: SKIN: KERATOACANTHOMA",active; positive
Nc1nc(N)c2nc(-c3ccccc3)c(N)nc2n1,carcinogen call,"Species: MOUSE, Strain/Sex: B6C3F1/FEMALE, Route: ORAL, Dose: 0, 100, 200, 400 PPM IN FEED FOR 104 WK (STUDY DURATION: 2 YR), Dose: 0, 100, 200, 400 PPM IN FEED FOR 104 WK (STUDY DURATION: 2 YR), Tumor Site: Type of Lesion: LIVER: HEPATOCELLULAR ADENOMA",active; positive
same,carcinogen call,"Species: MOUSE, Strain/Sex: B6C3F1/FEMALE, Route: ORAL, Dose: 0, 400 PPM IN FEED FOR 104 WK (STUDY DURATION: 2 YR), Tumor Site: Type of Lesion: LIVER: HEPATOCELLULAR ADENOMA",active; positive
same,carcinogen call,"Species: MOUSE, Strain/Sex: B6C3F1/MALE, Route: ORAL, Dose: 0, 100, 200, 400 PPM IN FEED FOR 104 WK (STUDY DURATION: 2 YR), Dose: 0, 100, 200, 400 PPM IN FEED FOR 104 WK (STUDY DURATION: 2 YR), Tumor Site: Type of Lesion: LIVER: HEPATOCELLULAR CARCINOMA",active; positive
same,carcinogen call,"Species: MOUSE, Strain/Sex: B6C3F1/MALE, Route: ORAL, Dose: 0, 400 PPM IN FEED FOR 104 WK (STUDY DURATION: 2 YR), Tumor Site: Type of Lesion: LIVER: HEPATOCELLULAR ADENOMA",active; positive
same,carcinogen call,"Species: RAT, Strain/Sex: F344/FEMALE, Route: ORAL, Dose: 0, 150, 300, 600 PPM IN FEED FOR 104 WK (STUDY DURATION: 2 YR), Dose: 0, 150, 300, 600 PPM IN FEED FOR 104 WK (STUDY DURATION: 2 YR)",inactive; negative
same,carcinogen call,"Species: RAT, Strain/Sex: F344/MALE, Route: ORAL, Dose: 0, 150, 300, 600 PPM IN FEED FOR 104 WK (STUDY DURATION: 105 WK), Dose: 0, 150, 300, 600 PPM IN FEED FOR 104 WK (STUDY DURATION: 105 WK), Tumor Site: Type of Lesion: LIVER: ADENOMA",equivocal
NC(=O)N(N)c1ccccc1,carcinogen call,"Species: MOUSE, Route: ORAL, Tumor Site: Type of Lesion: LIVER, LUNG",active; positive
C/C=C/c1ccc2c(c1)OCO2,carcinogen call,"Species: MOUSE, Strain/Sex: B6C3F1/MALE,FEMALE, Route: GAVAGE/ORAL, Dose: 215 MG/KG FROM D 6= 28 OF LIFE THEN 517 MG/KG IN DIET, Tumor Site: Type of Lesion: LIVER",active; positive
same,carcinogen call,"Species: RAT, Route: ORAL, Dose: 1000, 2500, 5000, 10000 MG/KG IN DIET FOR 2 YR, Dose: 1000, 2500, 5000, 10000 MG/KG IN DIET FOR 2 YR, Tumor Site: Type of Lesion: LIVER: HEPATOCELLULAR ADENOMA, CARCINOMA",active; positive
